What all share (assay type): biochemical
The target in test [1] is MMP-14CD (catalytic domain of MMP-14) (Homo sapiens, UniProt P50281). Put plainly: Thiopeptolide hydrolysis assay, MMP-14CD. The following applies: Table 2; thiopeptolide substrate, HEPES pH 7.0; read-out: IC50 (μM) Versus Certain MMPs: MMP14 (CD). An excerpt:
(§1) The invention compounds of Formula I have been evaluated in standard assays for their ability to inhibit the catalytic activity of various MMP enzymes.
(§2) Thiopeptolide substrates show virtually no decomposition or hydrolysis at or below neutral pH in the absence of a matrix metalloproteinase enzyme.
(§3) Several representative compounds have been evaluated for their ability to inhibit various matrix metalloproteinase enzymes.

Test [2] has as its target T1, MMP-2FL (full-length Gelatinase A) (Homo sapiens, UniProt P08253).
T1 sequence (P08253 110-660): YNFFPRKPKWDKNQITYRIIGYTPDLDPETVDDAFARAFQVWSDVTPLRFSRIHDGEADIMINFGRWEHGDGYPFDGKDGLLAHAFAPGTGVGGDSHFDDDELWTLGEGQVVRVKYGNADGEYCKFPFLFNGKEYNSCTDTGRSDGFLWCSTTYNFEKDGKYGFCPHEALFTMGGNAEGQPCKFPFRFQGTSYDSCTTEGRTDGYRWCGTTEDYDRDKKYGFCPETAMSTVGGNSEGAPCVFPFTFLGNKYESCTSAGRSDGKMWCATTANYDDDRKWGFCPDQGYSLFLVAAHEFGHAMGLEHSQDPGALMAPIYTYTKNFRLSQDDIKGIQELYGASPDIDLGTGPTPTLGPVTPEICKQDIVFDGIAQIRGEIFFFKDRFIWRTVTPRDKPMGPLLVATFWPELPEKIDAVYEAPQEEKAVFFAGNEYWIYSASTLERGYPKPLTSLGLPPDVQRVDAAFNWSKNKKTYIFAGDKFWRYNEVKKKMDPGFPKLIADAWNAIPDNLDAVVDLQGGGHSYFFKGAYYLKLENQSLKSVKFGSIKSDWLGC
As to the kind of experiment: Thiopeptolide hydrolysis assay, MMP-2FL. The following applies: Table 2; thiopeptolide substrate, HEPES pH 7.0; read-out: IC50 (μM) Versus Certain MMPs: MMP02 (FL).
Description: as §1, §2, §3

Test [3] concerns the target MMP-9FL (full-length Gelatinase B) (Homo sapiens, UniProt P14780). As to the kind of experiment: Thiopeptolide hydrolysis assay, MMP-9FL. The following applies: Table 2; thiopeptolide substrate, HEPES pH 7.0; read-out: IC50 (μM) Versus Certain MMPs: MMP09 (FL).
Description: as §1, §2, §3

In test [4] the target is T2, MMP-7FL (full-length matrilysin) (Homo sapiens, UniProt P09237).
T2 sequence (P09237 95-267): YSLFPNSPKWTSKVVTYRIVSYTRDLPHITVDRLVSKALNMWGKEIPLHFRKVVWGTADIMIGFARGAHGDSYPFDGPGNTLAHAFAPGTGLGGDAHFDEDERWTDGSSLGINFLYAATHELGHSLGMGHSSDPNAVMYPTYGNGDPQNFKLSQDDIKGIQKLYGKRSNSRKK
Put plainly: Thiopeptolide hydrolysis assay, MMP-7FL. The following applies: Table 2; thiopeptolide substrate, HEPES pH 7.0; read-out: IC50 (μM) Versus Certain MMPs: MMP07 (FL).
Description: as §1, §2, §3

The target of test [5] is MMP-3CD (catalytic domain of stromelysin-1) (Homo sapiens, UniProt P08254). Put plainly: Thiopeptolide hydrolysis assay, MMP-3CD. The settings on record: Table 2; thiopeptolide substrate, MES buffer pH 6.0; read-out: IC50 (μM) Versus Certain MMPs: MMP03 (CD).
MMP-3CD (catalytic domain of stromelysin-1), sequence (P08254 100-272 limits assumed): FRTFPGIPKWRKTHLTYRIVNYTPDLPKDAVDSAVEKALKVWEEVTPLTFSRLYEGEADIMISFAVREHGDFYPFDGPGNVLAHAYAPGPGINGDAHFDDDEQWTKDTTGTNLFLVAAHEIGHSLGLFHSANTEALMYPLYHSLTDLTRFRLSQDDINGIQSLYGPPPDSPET
The target of test [6] is T3, MMP-1FL (full-length interstitial collagenase) (Homo sapiens, UniProt P03956).
T3 sequence (P03956 100-469): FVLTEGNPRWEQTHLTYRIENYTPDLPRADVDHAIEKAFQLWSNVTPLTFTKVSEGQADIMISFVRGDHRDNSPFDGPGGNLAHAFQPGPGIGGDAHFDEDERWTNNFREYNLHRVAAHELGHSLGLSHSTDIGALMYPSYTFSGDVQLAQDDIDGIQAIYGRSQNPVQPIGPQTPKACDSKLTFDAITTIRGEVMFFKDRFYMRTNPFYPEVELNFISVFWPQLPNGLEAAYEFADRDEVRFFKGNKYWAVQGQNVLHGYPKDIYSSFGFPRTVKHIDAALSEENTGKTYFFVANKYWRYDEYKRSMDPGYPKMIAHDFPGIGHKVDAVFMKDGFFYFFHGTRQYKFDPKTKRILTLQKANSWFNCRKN
As to the kind of experiment: Thiopeptolide hydrolysis assay, MMP-1FL. The settings on record: Table 2; thiopeptolide substrate, HEPES pH 7.0; read-out: IC50 (μM) Versus Certain MMPs: MMP01 (FL).
Description: as §1, §2, §3

The target of test [7] is MMP-13CD (catalytic domain of collagenase 3) (Homo sapiens, UniProt P45452). As to the kind of experiment: Thiopeptolide hydrolysis assay, MMP-13CD. The following applies: Table 2; thiopeptolide substrate, HEPES pH 7.0; read-out: IC50 (μM) Versus Certain MMPs: MMP13 (CD).
Description: as §1, §2, §3

Structures are written as SMILES.

This is an account of results in patent publication US6656932B2, “Benzo thiadiazine matrix metalloproteinase inhibitors” (Warner-Lambert Company, priority 2001, dated 2003).

As usually defined, the IC50 is the midpoint of a concentration-inhibition curve.

MMP-9FL (full-length Gelatinase B), sequence (P14780 94-707, species assumed): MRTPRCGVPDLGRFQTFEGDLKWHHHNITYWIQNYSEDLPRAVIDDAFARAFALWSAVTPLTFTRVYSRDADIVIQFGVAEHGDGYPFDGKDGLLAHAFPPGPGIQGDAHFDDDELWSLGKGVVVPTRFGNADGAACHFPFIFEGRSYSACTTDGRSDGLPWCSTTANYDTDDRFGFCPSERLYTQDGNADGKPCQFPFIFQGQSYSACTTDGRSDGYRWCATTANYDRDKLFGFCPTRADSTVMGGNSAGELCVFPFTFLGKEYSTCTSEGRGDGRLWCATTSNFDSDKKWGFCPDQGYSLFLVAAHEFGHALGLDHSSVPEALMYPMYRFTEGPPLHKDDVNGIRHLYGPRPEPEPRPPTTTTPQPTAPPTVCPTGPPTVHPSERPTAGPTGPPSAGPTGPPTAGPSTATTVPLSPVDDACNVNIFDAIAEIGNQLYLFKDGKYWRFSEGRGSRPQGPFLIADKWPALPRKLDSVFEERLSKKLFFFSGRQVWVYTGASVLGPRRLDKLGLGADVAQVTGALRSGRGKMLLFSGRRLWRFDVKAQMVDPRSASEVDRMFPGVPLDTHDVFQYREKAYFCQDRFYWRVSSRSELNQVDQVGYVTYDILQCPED

Consider `COc1ccc(CNC(=O)c2ccc3c(c2)S(=O)(=O)N(Cc2ccccc2)C(=O)N3C)cc1` [Example 5, 2-Benzyl-4-methyl-1,1,3-trioxo-1,2,3,4-tetrahydro-1l^6-benzo[1,2,4]thiadiazine-7-carboxylic acid 4-methoxy-benzylamide], for which the IC50 was over 30 µM in test [1]; over 100 µM in test [2]; over 30 µM in test [3]; 51 µM in test [4]; over 30 µM in test [5]; over 30 µM in test [6]. Besides, the IC50 in test [7] was 0.17 µM.
